Measured values taken from PubChem BioAssay (NCI).
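All cell lines were grown in 96-well plates and treated with compound for 48 hours. TGI: concentration producing complete growth inhibition.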

Legend:
Test in all cases: DTP human tumour cell line panel, 48 h
SR leukemia = system: SR leukemia
OVCAR-3 ovarian = system: OVCAR-3 ovarian
CCRF-CEM leukemia = system: CCRF-CEM leukemia
RXF 393 renal = system: RXF 393 renal
NCI-H23 lung = system: NCI-H23 lung
M14 melanoma = system: M14 melanoma
OVCAR-5 ovarian = system: OVCAR-5 ovarian
KM12 colon = system: KM12 colon
MALME-3M melanoma = system: MALME-3M melanoma
HOP-92 NSCLC = system: HOP-92 NSCLC
BT-549 breast = system: BT-549 breast
MDA-N = system: MDA-N
T-47D breast = system: T-47D breast
PC-3 prostate = system: PC-3 prostate

SMILES	TGI (SR leukemia)	TGI (OVCAR-3 ovarian)	TGI (CCRF-CEM leukemia)	TGI (RXF 393 renal)	TGI (NCI-H23 lung)	TGI (M14 melanoma)	TGI (OVCAR-5 ovarian)	TGI (KM12 colon)	TGI (MALME-3M melanoma)	TGI (HOP-92 NSCLC)	TGI (BT-549 breast)	TGI (MDA-N)	TGI (T-47D breast)	TGI (PC-3 prostate)
CC1=CCN(c2ccccn2)OC1c1ccccc1 (stereo unspecified)	> 100 µM	> 100 µM	> 100 µM	> 100 µM	> 100 µM	> 100 µM	> 100 µM	> 100 µM	> 100 µM					
CCOC(=O)c1c(-c2ccccc2)c(C)cn1C	> 10 µM	> 10 µM	> 10 µM	> 10 µM	> 10 µM	> 10 µM	> 10 µM	> 10 µM		> 10 µM	> 10 µM	> 10 µM		
C/C(CC(=O)Nc1cccc([N+](=O)[O-])c1)=N\NC(=O)C[n+]1ccccc1		> 100 µM	> 100 µM	> 100 µM	> 100 µM	> 100 µM	> 100 µM	> 100 µM	> 100 µM	> 100 µM				
O=c1[nH]c2ccc([N+](=O)[O-])cc2nc1/C(=N/Nc1ccccc1)C(O)c1ccco1 (stereo unspecified)	> 100 µM	> 100 µM	> 100 µM	> 100 µM	> 100 µM	> 100 µM	> 100 µM	> 100 µM	> 100 µM	> 100 µM				
CCOC(=O)C1C(c2ccc(OC)cc2)c2c([nH]n(-c3ccccc3)c2=O)CC1(C)O (stereo unspecified)	> 100 µM	> 100 µM	35.6 µM		> 100 µM	> 100 µM	> 100 µM	> 100 µM	> 100 µM	> 100 µM		> 100 µM	> 100 µM	> 100 µM
Cc1cc2c(cc1Cl)Sc1n[nH]c(=O)n1S2(=O)=O		> 100 µM	> 100 µM		> 100 µM	> 100 µM	> 100 µM	> 100 µM	> 100 µM	> 100 µM	> 100 µM	> 100 µM		> 100 µM
CC1(Cl)CC(C)(/C=C/Cl)C(Cl)CC1Cl (stereo unspecified)	44.6 µM	28 µM	59 µM	30.6 µM	44.1 µM	31.2 µM	34.2 µM	31.3 µM	29.6 µM	16.8 µM				
CN(/N=C\c1ccc2ccccc2c1)C1=NCCCN1	> 100 µM	54.1 µM	48.6 µM	35.4 µM	> 100 µM		> 100 µM	32.1 µM	26.4 µM	14.5 µM			> 100 µM	
O=C(/C(=C/c1ccc(O)cc1)c1ccccc1)c1ccccc1	61.2 µM		80.2 µM		30.7 µM	30.9 µM	32 µM	29.1 µM	37.1 µM	18.3 µM				
CCCCCCCCCCCCC1N=C(N)NC2(CCCO2)C1C(=O)OC (stereo unspecified)	> 20.9 µM	13.2 µM	5.83 µM	6.12 µM	18.2 µM	16.6 µM	22.1 µM	3.34 µM	38 µM	17.2 µM	18.5 µM		27.7 µM	8.57 µM
CC(C)[C@@H]1NC(=O)[C@@H]2N=C(O[C@H]2C)[C@H](C(C)C)NC(=O)C2N=C1O[C@H]2C	> 100 µM	> 100 µM	> 100 µM	> 100 µM	> 100 µM	> 100 µM	> 100 µM	> 100 µM	> 100 µM	> 100 µM		> 100 µM	> 100 µM	> 100 µM
Cc1nc(Cc2n[nH]c(C)n2)n[nH]1	> 100 µM	> 100 µM	> 100 µM	> 100 µM	> 100 µM	> 100 µM	> 100 µM	> 100 µM		> 100 µM	> 100 µM	> 100 µM		> 100 µM
O=C(O)CCC1NC(/C(=C/c2ccccc2O)NC(=O)c2ccccc2)OC1=O (stereo unspecified)		> 100 µM	> 100 µM	> 100 µM	> 100 µM	> 100 µM	> 100 µM	> 100 µM	> 100 µM	> 100 µM	> 100 µM		> 100 µM	> 100 µM
CC(C)(CN1CCCCC1)C(=O)CC(SCCS(=O)(=O)O)c1ccc(Cl)cc1 (stereo unspecified)	4.82 µM	17.9 µM	6.04 µM	9.92 µM	16.6 µM	9.19 µM	11.4 µM	19.2 µM	24.3 µM	7.13 µM	22.7 µM	9.57 µM		18.1 µM
Cc1ccccc1Nc1nc2ccccc2nc1NS(=O)(=O)c1ccccc1	> 100 µM	> 100 µM	> 100 µM	> 100 µM	> 100 µM	> 100 µM	> 100 µM	> 100 µM	> 100 µM	> 100 µM			> 100 µM	> 100 µM
C=CCOC(=O)N1c2ccc(O)cc2[C@@]23O[C@@]24[C@@H]1C#C/C=C\C#C[C@]3(O)C(=O)C[C@@H]4C	42.3 µM		> 100 µM	> 100 µM	> 100 µM	> 100 µM	> 100 µM	> 100 µM	> 100 µM	> 100 µM		> 100 µM	> 100 µM	> 100 µM
C[n+]1c(-c2ccc(/C=N/NC(=O)C(=O)N/N=C/c3ccc(-c4cn5ccccc5[n+]4C)cc3)cc2)cn2ccccc21		> 100 µM	> 100 µM	> 100 µM	> 100 µM	> 100 µM	> 100 µM	> 100 µM	> 100 µM	> 100 µM	> 100 µM	> 100 µM		> 100 µM
O=CC1=CCC2c3[nH]c4ccccc4c3CCN2C1 (stereo unspecified)	> 396 µM	314 µM	> 396 µM	> 396 µM	320 µM		> 396 µM	153 µM	> 396 µM	> 396 µM				
CC(C)=CC(=O)c1c(C(=O)O)nc2ccccc2[n+]1[O-]	> 100 µM		> 100 µM	> 100 µM	> 100 µM	> 100 µM	> 100 µM	> 100 µM		> 100 µM				
COC(=O)CC1CC2(C(=O)OC)c3[nH]c4ccccc4c3CCN2C1=O (stereo unspecified)	> 100 µM	> 100 µM	> 100 µM	> 100 µM	> 100 µM	> 100 µM	> 100 µM	> 100 µM	> 100 µM	> 100 µM				
